Data published in patent US20230141101A1, “PDE4 INHIBITOR COMPOUND AND MEDICAL USE THEREOF” (Suzhou Longbotai Pharmaceuticals Co., Ltd., priority 2020, published 2023).

Experiments:
Type in all cases: biochemical
Details in all cases: 20 nM
PDE4A1A = molecular target: T1, PDE4A1A (Homo sapiens, UniProt P27815); test: PDE4 inhibitory activity assay (FAM-cAMP enzymatic reaction), PDE4A1A
T1 construct: purchased BPS 60040
Method in brief: (§1)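 Each isoform is incubated with test compound for 15 min at room temperature before FAM-cAMP substrate starts a 30-min reaction.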

PDE4B1 = molecular target: T2, PDE4B1 (Homo sapiens, UniProt Q07343); test: PDE4 inhibitory activity assay (FAM-cAMP enzymatic reaction), PDE4B1
T2 construct: purchased BPS 60041
T2 sequence (Q07343 whole entry): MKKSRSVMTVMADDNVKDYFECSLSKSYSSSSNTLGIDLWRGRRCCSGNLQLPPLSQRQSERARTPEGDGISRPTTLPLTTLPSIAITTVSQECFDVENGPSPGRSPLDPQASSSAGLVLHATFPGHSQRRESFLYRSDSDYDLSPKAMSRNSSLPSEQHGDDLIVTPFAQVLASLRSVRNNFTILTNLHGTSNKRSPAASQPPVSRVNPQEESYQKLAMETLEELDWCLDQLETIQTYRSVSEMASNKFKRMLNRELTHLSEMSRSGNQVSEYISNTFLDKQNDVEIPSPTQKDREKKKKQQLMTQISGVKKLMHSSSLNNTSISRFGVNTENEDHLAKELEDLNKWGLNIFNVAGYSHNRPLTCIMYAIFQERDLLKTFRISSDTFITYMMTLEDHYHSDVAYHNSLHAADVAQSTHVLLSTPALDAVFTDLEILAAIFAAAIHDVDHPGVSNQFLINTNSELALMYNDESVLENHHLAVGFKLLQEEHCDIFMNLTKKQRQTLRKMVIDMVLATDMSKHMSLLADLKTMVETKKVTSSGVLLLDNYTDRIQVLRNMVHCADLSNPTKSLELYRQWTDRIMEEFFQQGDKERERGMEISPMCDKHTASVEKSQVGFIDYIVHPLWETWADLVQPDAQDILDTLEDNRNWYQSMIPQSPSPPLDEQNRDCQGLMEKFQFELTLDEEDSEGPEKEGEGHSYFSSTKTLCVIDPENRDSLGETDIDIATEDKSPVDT
Method in brief: as §1

PDE4D2 = PDE4D2 (Homo sapiens, UniProt Q08499); test: PDE4 inhibitory activity assay (FAM-cAMP enzymatic reaction), PDE4D2
Chain of PDE4D2 (Q08499 303-809): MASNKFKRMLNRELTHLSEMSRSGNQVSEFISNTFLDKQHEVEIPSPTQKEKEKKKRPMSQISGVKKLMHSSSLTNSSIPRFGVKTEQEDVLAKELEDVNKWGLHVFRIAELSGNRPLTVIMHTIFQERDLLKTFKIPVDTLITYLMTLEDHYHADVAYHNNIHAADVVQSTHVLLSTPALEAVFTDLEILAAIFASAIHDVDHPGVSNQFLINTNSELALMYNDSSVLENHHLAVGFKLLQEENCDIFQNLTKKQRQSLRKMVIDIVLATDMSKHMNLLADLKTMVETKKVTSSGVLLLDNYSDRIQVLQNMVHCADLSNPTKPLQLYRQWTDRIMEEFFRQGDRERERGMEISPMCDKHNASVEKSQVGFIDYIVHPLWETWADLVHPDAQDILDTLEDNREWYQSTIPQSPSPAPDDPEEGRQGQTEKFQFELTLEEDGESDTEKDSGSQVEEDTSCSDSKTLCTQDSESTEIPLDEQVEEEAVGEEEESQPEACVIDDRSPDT
Method in brief: as §1

T1 sequence (P27815 1-647 isoform P27815-4): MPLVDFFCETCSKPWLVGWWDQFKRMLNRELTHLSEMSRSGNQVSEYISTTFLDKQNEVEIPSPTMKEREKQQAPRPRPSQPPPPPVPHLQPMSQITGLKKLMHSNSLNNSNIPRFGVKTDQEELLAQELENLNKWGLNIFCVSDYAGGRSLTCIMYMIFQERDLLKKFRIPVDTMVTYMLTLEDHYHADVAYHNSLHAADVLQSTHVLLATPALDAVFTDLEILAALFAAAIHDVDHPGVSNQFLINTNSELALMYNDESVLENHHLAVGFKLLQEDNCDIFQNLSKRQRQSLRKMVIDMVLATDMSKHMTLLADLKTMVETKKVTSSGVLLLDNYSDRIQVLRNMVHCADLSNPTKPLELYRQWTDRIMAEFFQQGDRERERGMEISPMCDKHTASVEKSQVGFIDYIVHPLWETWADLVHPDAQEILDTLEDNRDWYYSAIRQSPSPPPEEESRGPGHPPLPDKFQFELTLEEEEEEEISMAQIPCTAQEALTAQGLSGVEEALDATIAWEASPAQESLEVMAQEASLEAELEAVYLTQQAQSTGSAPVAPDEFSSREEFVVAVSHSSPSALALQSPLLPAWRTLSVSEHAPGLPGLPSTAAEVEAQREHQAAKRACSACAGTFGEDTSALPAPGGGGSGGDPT

Compound | PDE4 A1 inhibitory effect at 20 nM (PDE4A1A) | PDE4 B1 inhibitory effect at 20 nM (PDE4B1) | PDE4 D2 inhibitory effect at 20 nM (PDE4D2)
CCOc1nc([C@@H](CS(C)(=O)=O)n2c(=O)[nH]c3cc(-c4ccccc4C(F)(F)F)cnc32)ccc1OC [Ex. 85, (S)-3-(1-(6-ethoxy-5-methoxypyridin-2-yl)-2-(methylsulfonyl)ethyl)-6-(2-(trifluoromethyl)phenyl)-1H-imidazo[4,5-b]pyridin-2(3H)-one] | + | + | +
CCOc1nc([C@@H](CS(C)(=O)=O)n2c(=O)n(C)c3cc(-c4ccccc4C(F)(F)F)cnc32)ccc1OC [Ex. 86, (S)-3-(1-(6-ethoxy-5-methoxypyridin-2-yl)-2-(methylsulfonyl)ethyl)-6-(2-(trifluoromethyl)phenyl)-1-methyl-1H-imidazo[4,5-b]pyridin-2(3H)-one] | + | + | +
CCOc1nc([C@@H](CS(C)(=O)=O)n2c(=O)[nH]c3cc(-c4ccccc4C4CC4)cnc32)ccc1OC [Ex. 87, (S)-6-(2-cyclopropylphenyl)-3-(1-(6-ethoxy-5-methoxypyridin-2-yl)-2-(methylsulfonyl)ethyl)-1H-imidazo[4,5-b]pyridin-2(3H)-one] | + | + | +
CCOc1nc([C@@H](CS(C)(=O)=O)n2c(=O)[nH]c3cc(-c4c(F)cccc4F)cnc32)ccc1OC [Ex. 88, (S)-6-(2,6-difluorophenyl)-3-(1-(6-ethoxy-5-methoxypyridin-2-yl)-2-(methylsulfonyl)ethyl)-1H-imidazo[4,5-b]pyridin-2(3H)-one] | + | + | +
CCOc1nc([C@@H](CS(C)(=O)=O)n2c(=O)n(C)c3cc(-c4c(F)cccc4F)cnc32)ccc1OC [Ex. 89, (S)-6-(2,6-difluorophenyl)-3-(1-(6-ethoxy-5-methoxypyridin-2-yl)-2-(methylsulfonyl)ethyl)-1-methyl-1H-imidazo[4,5-b]pyridin-2(3H)-one] | + | + | +
CCOc1nc([C@@H](CS(C)(=O)=O)n2c(=O)[nH]c3cc(-c4cccc(F)c4F)cnc32)ccc1OC [Ex. 90, (S)-6-(2,3-difluorophenyl)-3-(1-(6-ethoxy-5-methoxypyridin-2-yl)-2-(methylsulfonyl)ethyl)-1H-imidazo[4,5-b]pyridin-2(3H)-one] | + | + | +
CCOc1nc([C@@H](CS(C)(=O)=O)n2c(=O)n(C)c3cc(-c4cccc(F)c4F)cnc32)ccc1OC [Ex. 91, (S)-6-(2,3-difluorophenyl)-3-(1-(6-ethoxy-5-methoxypyridin-2-yl)-2-(methylsulfonyl)ethyl)-1-methyl-1H-imidazo[45-b]pyridin-2(3H)-one] | + | + | +
CCOc1nc([C@@H](CS(C)(=O)=O)n2c(=O)[nH]c3cc(-c4cc(F)ccc4F)cnc32)ccc1OC [Ex. 92, (S)-6-(2,5-difluorophenyl)-3-(1-(6-ethoxy-5-methoxypyridin-2-yl)-2-(methylsulfonyl)ethyl)-1H-imidazo[4,5-b]pyridin-2(3H)-one] | + | + | +
CCOc1nc([C@@H](CS(C)(=O)=O)n2c(=O)n(C)c3cc(-c4cc(F)ccc4F)cnc32)ccc1OC [Ex. 93, (S)-6-(2,5-difluorophenyl)-3-(1-(6-ethoxy-5-methoxypyridin-2-yl)-2-(methylsulfonyl)ethyl)-1-methyl-1H-imidazo[4,5-b]pyridin-2(3H)-one] | + | + | +
CCOc1nc([C@@H](CS(C)(=O)=O)n2c(=O)[nH]c3cc(-c4ccc(F)cc4F)cnc32)ccc1OC [Ex. 94, (S)-6-(2,4-difluorophenyl)-3-(1-(6-ethoxy-5-methoxypyridin-2-yl)-2-(methylsulfonyl)ethyl)-1H-imidazo[4,5-b]pyridin-2(3H)-one] | + | + | +
CCOc1nc([C@@H](CS(C)(=O)=O)n2c(=O)n(C)c3cc(-c4ccc(F)cc4F)cnc32)ccc1OC [Ex. 95, (S)-6-(2,4-difluorophenyl)-3-(1-(6-ethoxy-5-methoxypyridin-2-yl)-2-(methylsulfonyl)ethyl)-1-methyl-1H-imidazo[4,5-b]pyridin-2(3H)-one] | + | + | +
CCOc1nc([C@@H](CS(C)(=O)=O)n2c(=O)[nH]c3cc(-c4cc(F)c(F)cc4F)cnc32)ccc1OC [Ex. 96, (S)-6-(2,4,5-trifluorophenyl)-3-(1-(6-ethoxy-5-methoxypyridin-2-yl)-2-(methylsulfonyl)ethyl)-1H-imidazo[4,5-b]pyridin-2(3H)-one] | + | + | +
CCOc1nc([C@@H](CS(C)(=O)=O)n2c(=O)n(C)c3cc(-c4cc(F)c(F)cc4F)cnc32)ccc1OC [Ex. 97, (S)-6-(2,4,5-trifluorophenyl)-3-(1-(6-ethoxy-5-methoxypyridin-2-yl)-2-(methylsulfonyl)ethyl)-1-methyl-1H-imidazo[4,5-b]pyridin-2(3H)-one] | + | + | +
CCOc1nc([C@H](CS(C)(=O)=O)n2c(=O)[nH]c3cc(-c4cc(F)ccc4F)cnc32)ccc1OC [Ex. 98, (R)-6-(2,5-difluorophenyl)-3-(1-(6-ethoxy-5-methoxypyridin-2-yl)-2-(methylsulfonyl)ethyl)-1H-imidazo[4,5-b]pyridin-2(3H)-one] | − | − | −
CCOc1nc([C@@H](CS(C)(=O)=O)n2c(=O)[nH]c3cc(-c4ccc(C)cc4C)cnc32)ccc1OC [Ex. 99, (S)-6-(2,4-dimethylphenyl)-3-(1-(6-ethoxy-5-methoxypyridin-2-yl)-2-(methylsulfonyl)ethyl)-1H-imidazo[4,5-b]pyridin-2(3H)-one] | + | + | +
CCOc1nc([C@@H](CS(C)(=O)=O)n2c(=O)n(C)c3cc(-c4ccc(C)cc4C)cnc32)ccc1OC [Ex. 100, (S)-6-(2,4-dimethylphenyl)-3-(1-(6-ethoxy-5-methoxypyridin-2-yl)-2-(methylsulfonyl)ethyl)-1-methyl-1H-imidazo[4,5-b]pyridin-2(3H)-one] | + | + | +
CCOc1nc([C@@H](CS(C)(=O)=O)n2c(=O)[nH]c3cc(-c4cc(C)ccc4C)cnc32)ccc1OC [Ex. 101, (S)-6-(2,5-dimethylphenyl)-3-(1-(6-ethoxy-5-methoxypyridin-2-yl)-2-(methylsulfonyl)ethyl)-1H-imidazo[4,5-b]pyridin-2(3H)-one] | + | + | +
CCOc1nc([C@@H](CS(C)(=O)=O)n2c(=O)n(C)c3cc(-c4cc(C)ccc4C)cnc32)ccc1OC [Ex. 102, (S)-6-(2,5-dimethylphenyl)-3-(1-(6-ethoxy-5-methoxypyridin-2-yl)-2-(methylsulfonyl)ethyl)-1-methyl-1H-imidazo[4,5-b]pyridin-2(3H)-one] | + | + | +
CCOc1nc([C@@H](CS(C)(=O)=O)n2c(=O)[nH]c3cc(-c4cccc(C)c4C)cnc32)ccc1OC [Ex. 103, (S)-6-(2,3-dimethylphenyl)-3-(1-(6-ethoxy-5-methoxypyridin-2-yl)-2-(methylsulfonyl)ethyl)-1H-imidazo[4,5-b]pyridin-2(3H)-one] | + | + | +
CCOc1nc([C@@H](CS(C)(=O)=O)n2c(=O)n(C)c3cc(-c4cccc(C)c4C)cnc32)ccc1OC [Ex. 104, (S)-6-(2,3-dimethylphenyl)-3-(1-(6-ethoxy-5-methoxypyridin-2-yl)-2-(methylsulfonyl)ethyl)-1-methyl-1H-imidazo[4,5-b]pyridin-2(3H)-one] | + | + | +
